Reference: patent US20100331310A1, “BICYCLOAMINE DERIVATIVES” (priority 2008, published 2010)
Structures can show the parent of a compound that is named as a salt.

Legend:
[1] = target: T1, human Nav1.8 (Homo sapiens, UniProt Q9Y5Y9); test: Membrane potential increase-inhibitory action on TTX-resistant Na channels in cells expressing human Nav1.8 gene (deltamethrin stimulation); format: cell-based
T1 construct: expressed in transfected cells
Method: A cell line expressing human Nav1.8 gene was used to evaluate the pharmacological effects of compounds of the invention.
1. A membrane potential-sensitive dye containing TTX (final concentration: 0.25 μM) was added to cells expressing human Nav1.8, prior to incubation at 37° C. for 30-60 minutes. 2. The test compound was added to the cells, and the mixture was stationed for 15-30 minutes at room temperature while shielded from light. 3. Deltamethrin (final concentration: 50 μM), a Nav1.8 channel stimulant, was added, and the change in fluorescence intensity due to increased membrane potential was measured.
The Nav1.8 channel inhibition of the test compound was determined by the following equation.

[2] = system: rats that exhibited ectopic firing (left saphenous nerve); test: Suppression of ectopic firing in rats with cut saphenous nerve; format: in vivo; conditions: rat, urethane anesthesia, administration via catheter in right cervical vein; number of firings every 10 seconds; read-out: Suppressing activity on ectopic firing, ED50
Method: (1) The suppressing effect on ectopic firing was evaluated by the following method, with reference to Burchiel, K J., Exp. Neurol., 102, 249-253 (1988). […] The left saphenous nerve was exposed under urethane anesthesia (1 g/kg body weight), and an area approximately 1 cm adjacent to the cutting site was removed from the surrounding tissue. A catheter was inserted into the right cervical vein for administration of the compound. (3) The removed nerve was placed on a platinum hook electrode and covered with liquid paraffin to avoid drying of the nerve. The electrode was connected to a microelectrode amp, and the change in potential was recorded on a computer from an oscilloscope, via an A/D converter. The recorded nerve firing was evaluated based on the number of firings every 10 seconds, using analysis software (AcqKnowledge).

[3] = system: sodium channels in cultured rat hippocampus; conditions: cited from earlier work
[4] = system: ectopic firing; conditions: as described in Patent document 1; cited from earlier work

T1 sequence (Q9Y5Y9 whole entry): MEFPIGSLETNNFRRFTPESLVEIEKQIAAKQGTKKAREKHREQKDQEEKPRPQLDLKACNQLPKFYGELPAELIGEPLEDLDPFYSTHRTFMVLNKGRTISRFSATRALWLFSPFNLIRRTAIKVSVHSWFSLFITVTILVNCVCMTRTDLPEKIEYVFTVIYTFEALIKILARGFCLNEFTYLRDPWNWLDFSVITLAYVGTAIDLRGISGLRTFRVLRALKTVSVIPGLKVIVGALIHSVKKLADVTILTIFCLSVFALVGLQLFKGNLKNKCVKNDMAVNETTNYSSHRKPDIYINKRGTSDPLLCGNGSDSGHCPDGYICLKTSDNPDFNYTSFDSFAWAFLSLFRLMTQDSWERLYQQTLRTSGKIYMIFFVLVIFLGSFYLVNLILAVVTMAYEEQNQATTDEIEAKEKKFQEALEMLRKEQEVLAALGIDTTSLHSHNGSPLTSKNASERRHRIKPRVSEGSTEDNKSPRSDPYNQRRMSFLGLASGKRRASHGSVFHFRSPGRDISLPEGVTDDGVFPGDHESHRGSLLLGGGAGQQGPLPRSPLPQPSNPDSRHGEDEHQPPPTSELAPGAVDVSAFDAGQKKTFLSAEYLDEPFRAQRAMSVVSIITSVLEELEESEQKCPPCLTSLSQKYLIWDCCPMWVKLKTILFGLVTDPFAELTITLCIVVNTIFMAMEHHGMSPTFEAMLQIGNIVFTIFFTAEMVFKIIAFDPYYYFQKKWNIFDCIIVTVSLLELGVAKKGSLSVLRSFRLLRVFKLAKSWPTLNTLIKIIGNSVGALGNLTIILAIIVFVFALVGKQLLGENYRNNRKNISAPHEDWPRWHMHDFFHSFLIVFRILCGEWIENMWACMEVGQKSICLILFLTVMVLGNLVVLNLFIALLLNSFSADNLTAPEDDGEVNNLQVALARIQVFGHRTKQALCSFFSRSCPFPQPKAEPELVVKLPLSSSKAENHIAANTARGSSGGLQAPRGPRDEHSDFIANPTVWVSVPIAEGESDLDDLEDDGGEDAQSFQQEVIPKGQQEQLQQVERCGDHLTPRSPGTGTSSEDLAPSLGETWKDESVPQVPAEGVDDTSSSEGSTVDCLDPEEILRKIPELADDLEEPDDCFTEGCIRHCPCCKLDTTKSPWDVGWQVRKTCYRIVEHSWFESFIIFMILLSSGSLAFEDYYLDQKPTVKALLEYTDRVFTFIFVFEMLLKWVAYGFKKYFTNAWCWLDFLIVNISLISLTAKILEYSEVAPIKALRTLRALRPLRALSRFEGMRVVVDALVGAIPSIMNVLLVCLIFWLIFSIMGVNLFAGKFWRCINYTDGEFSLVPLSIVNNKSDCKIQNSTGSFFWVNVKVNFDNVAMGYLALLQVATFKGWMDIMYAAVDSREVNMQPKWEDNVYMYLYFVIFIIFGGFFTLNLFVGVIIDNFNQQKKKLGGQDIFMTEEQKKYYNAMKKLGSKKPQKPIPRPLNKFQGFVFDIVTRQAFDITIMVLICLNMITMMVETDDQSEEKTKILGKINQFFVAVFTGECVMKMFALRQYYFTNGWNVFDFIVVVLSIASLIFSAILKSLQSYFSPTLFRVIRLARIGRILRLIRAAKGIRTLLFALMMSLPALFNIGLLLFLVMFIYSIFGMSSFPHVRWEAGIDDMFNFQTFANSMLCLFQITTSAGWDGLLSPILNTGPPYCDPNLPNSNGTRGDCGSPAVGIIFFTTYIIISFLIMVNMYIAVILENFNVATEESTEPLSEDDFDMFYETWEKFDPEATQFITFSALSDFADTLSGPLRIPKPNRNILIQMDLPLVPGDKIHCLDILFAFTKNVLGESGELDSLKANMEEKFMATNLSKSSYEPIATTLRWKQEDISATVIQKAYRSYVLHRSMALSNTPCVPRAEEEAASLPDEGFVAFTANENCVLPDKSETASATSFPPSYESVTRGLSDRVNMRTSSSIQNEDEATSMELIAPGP

Structure (SMILES) | IC50 [1] [µM] | ED50 [2] [mg/kg] | Inhibitory activity against sodium channels [3] | Inhibitory activity against ectopic firing [4]
O=c1n(-c2ccccc2)cnn1CCCN1[C@@H]2CC[C@H]1C[C@@H](OCc1ccccc1F)C2 [Example 58, (Endo)-2-{3-[3-(2-fluorobenzyloxy)-8-azabicyclo[3.2.1]oct-8-yl]propyl}-4-phenyl-2,4-dihydro[1,2,4]triazol-3-one] | 0.13 | 0.18 |  | 
COC(CN1[C@@H]2CC[C@H]1C[C@@H](OCc1ccccc1F)C2)Cn1nc2ccccn2c1=O (stereo partly drawn) [Example 157, (Endo)-2-{3-[3-(2-fluorobenzyloxy)-8-azabicyclo[3.2.1]oct-8-yl]-2-methoxypropyl}-2H-[1,2,4]triazolo[4,3-a]pyridin-3-one] | 1.2 | 0.28 |  | 
O=c1n(CCCN2[C@@H]3CC[C@H]2C[C@@H](OCc2ccccc2F)C3)nc2ccccn12 [Example 145, (Endo)-2-{3-[3-(2-fluorobenzyloxy)-8-azabicyclo[3.2.1]oct-8-yl]propyl}-2H-[1,2,4]triazolo[4,3-a]pyridin-3-one] | 0.53 | 0.28 |  | 
Cn1ccn2c(=O)n(CCCN3[C@@H]4CC[C@H]3C[C@@H](OCc3ccccc3F)C4)c(=O)nc12 [Example 174, (Endo)-3-{3-[3-(2-fluorobenzyloxy)-8-azabicyclo[3.2.1]oct-8-yl]propyl}-8-methyl-8H-imidazo[1,2-a][1,3,5]triazine-2,4-dione] | 0.89 | 0.21 |  | 
Cc1nc(=O)n(C[C@@H](F)CN2C3CCC2CC(OCc2ccc(F)cc2)C3)c(=O)n1C (stereo partly drawn) [Example 12, (Endo)-3-{(S)-2-fluoro-3-[3-(4-fluorobenzyloxy)-8-azabicyclo[3.2.1]oct-8-yl]propyl}-1,6-dimethyl-1H-[1,3,5]triazine-2,4-dione oxalate] | 8.7 | 0.28 |  | 
Cc1nc2ccccn2c(=O)c1CCN1[C@@H]2CC[C@H]1C[C@@H](OCc1ccccc1F)C2 [Example 179, (Endo)-3-{2-[3-(2-fluorobenzyloxy)-8-azabicyclo[3.2.1]oct-8-yl]ethyl}-2-methylpyrido[1,2-a]pyrimidin-4-one oxalate] | 8.7 | 0.14 |  | 
O=c1[nH]cccc1CN1CC2CCCC(C1)C2/C=C/c1ccccc1F (stereo not shown) |  |  | has an inhibitory activity | inadequate
O=c1nc2n(c(=O)n1CCCN1[C@@H]3CC[C@H]1C[C@@H](CCc1ccccc1F)C3)CCCC2 [Example 129, (Endo)-3-(3-{3-[2-(2-fluorophenyl)ethyl)-8-azabicyclo[3.2.1]oct-8-yl}propyl]-6,7,8,9-tetrahydropyrido[1,2-a][1,3,5]triazine-2,4-dione oxalate] | 9.8 | 0.13 |  | 
Cc1nn(C[C@H](F)CN2[C@@H]3CC[C@H]2C[C@@H](OCc2ccccc2F)C3)c(=O)n1C [Example 4, (Endo)-2-{(R)-2-fluoro-3-[3-(2-fluorobenzyloxy)-8-azabicyclo[3.2.1]oct-8-yl]propyl}-4,5-dimethyl-2,4-dihydro[1,2,4]triazol-3-one] | 5 | 0.23 |  | 
Cc1nn(C[C@H](F)CN2C3CCC2CC(OCc2ccccc2CF)C3)c(=O)n1C (stereo partly drawn) [Example 6, (Endo)-2-{(R)-2-fluoro-3-[3-(2-fluoromethylbenzyloxy)-8-azabicyclo[3.2.1]oct-8-yl]propyl}-4,5-dimethyl-2,4-dihydro[1,2,4]triazol-3-one] | 5.2 | 0.27 |  | 
Cc1cccc(COC2CC3CCC(C2)N3CC(F)Cn2nc(N(C)C)n(C)c2=O)c1 (stereo not drawn) [Example 25, (Endo)-5-dimethylamino-2-{2-fluoro-3-[3-(3-methylbenzyloxy)-8-azabicyclo[3.2.1]oct-8-yl]propyl}-4-methyl-2,4-dihydro[1,2,4]triazol-3-one] | 0.71 | < 0.1 |  | 
Cc1nc(C)n(C)c(=O)c1CCN1[C@@H]2CC[C@H]1C[C@@H](OCc1ccccc1F)C2 [Example 184, (Endo)-5-{2-[3-(2-fluorobenzyloxy)-8-azabicyclo[3.2.1]oct-8-yl]ethyl}-2,3,6-trimethyl-3H-pyrimidin-4-one oxalate] | 7.6 | 0.19 |  | 
O=c1n(CCCN2[C@@H]3CC[C@H]2C[C@@H](OCc2ccccc2F)C3)nc2n1CCS2 [Example 116, (Endo)-2-{3-[3-(2-fluorobenzyloxy)-8-azabicyclo[3.2.1]oct-8-yl]propyl}-5,6-dihydro-2H-thiazolo[2,3-c][1,2,4]triazol-3-one] | 5.8 | 0.15 |  | 
O=c1n(CCCN2[C@@H]3CC[C@H]2C[C@@H](CCc2ccccc2F)C3)nc2ccccn12 [Example 149, (Endo)-2-(3-{3-[2-(2-fluorophenyl)ethyl)-8-azabicyclo[3.2.1]oct-8-yl}propyl]-2H-[1,2,4]triazolo[4,3-a]pyridin-3-one] | 0.28 | 0.15 |  | 
CN1CCn2c1nn(CC(F)CN1[C@@H]3CC[C@H]1C[C@@H](OCc1ccc(F)cc1)C3)c2=O (stereo partly drawn) [Example 112, (Endo)-2-{2-fluoro-3-[3-(4-fluorobenzyloxy)-8-azabicyclo[3.2.1]oct-8-yl]propyl}-7-methyl-2,5,6,7-tetrahydroimidazo[2,1-c][1,2,4]triazol-3-one] | 12 | 0.29 |  | 
Cc1nn(C[C@H](F)CN2C3CCC2CC(OCc2cccc(F)c2)C3)c(=O)n1C (stereo partly drawn) [Example 1, (Endo)-2-{(R)-2-fluoro-3-[3-(3-fluorobenzyloxy)-8-azabicyclo[3.2.1]oct-8-yl]propyl}-4,5-dimethyl-2,4-dihydro[1,2,4]triazol-3-one] | 3.2 | 0.14 |  | 
Cc1cc(-n2c(C)nn(CC(O)CN3[C@@H]4CC[C@H]3C[C@@H](OCc3ccccc3F)C4)c2=O)on1 (stereo partly drawn) [Example 47, (Endo)-2-{3-[3-(2-fluorobenzyloxy)-8-azabicyclo[3.2.1]oct-8-yl]-2-hydroxypropyl}-5-methyl-4-(3-methyl-isoxazol-5-yl)-2,4-dihydro[1,2,4]triazol-3-one oxalate] | 1.3 | 0.18 |  | 
